# Data taken from patent US9986740B2, “Methods of identifying insect-TRPA1 modulators” (BRANDEIS UNIVERSITY, priority 2010, dated 2018).
# Key:
# Drosophila flies = experiment: Proboscis extension response (PER) behavioral assay; format: in vivo, Drosophila melanogaster
# uninjected oocytes = experiment: Two-electrode voltage clamping on uninjected oocytes; format: cell-based, Xenopus laevis; settings: 3 mM AITC, 1 mM CA, 0.1 mM NMM
# dTRPA1 = target: T1, dTRPA1 (Drosophila melanogaster, UniProt Q7Z020); experiment: Larval neuromuscular junction electrophysiology, dTRPA1 expressed in motor neurons; format: cell-based; settings: third instar larval muscles
# T1 sequence (Q7Z020 1-1197): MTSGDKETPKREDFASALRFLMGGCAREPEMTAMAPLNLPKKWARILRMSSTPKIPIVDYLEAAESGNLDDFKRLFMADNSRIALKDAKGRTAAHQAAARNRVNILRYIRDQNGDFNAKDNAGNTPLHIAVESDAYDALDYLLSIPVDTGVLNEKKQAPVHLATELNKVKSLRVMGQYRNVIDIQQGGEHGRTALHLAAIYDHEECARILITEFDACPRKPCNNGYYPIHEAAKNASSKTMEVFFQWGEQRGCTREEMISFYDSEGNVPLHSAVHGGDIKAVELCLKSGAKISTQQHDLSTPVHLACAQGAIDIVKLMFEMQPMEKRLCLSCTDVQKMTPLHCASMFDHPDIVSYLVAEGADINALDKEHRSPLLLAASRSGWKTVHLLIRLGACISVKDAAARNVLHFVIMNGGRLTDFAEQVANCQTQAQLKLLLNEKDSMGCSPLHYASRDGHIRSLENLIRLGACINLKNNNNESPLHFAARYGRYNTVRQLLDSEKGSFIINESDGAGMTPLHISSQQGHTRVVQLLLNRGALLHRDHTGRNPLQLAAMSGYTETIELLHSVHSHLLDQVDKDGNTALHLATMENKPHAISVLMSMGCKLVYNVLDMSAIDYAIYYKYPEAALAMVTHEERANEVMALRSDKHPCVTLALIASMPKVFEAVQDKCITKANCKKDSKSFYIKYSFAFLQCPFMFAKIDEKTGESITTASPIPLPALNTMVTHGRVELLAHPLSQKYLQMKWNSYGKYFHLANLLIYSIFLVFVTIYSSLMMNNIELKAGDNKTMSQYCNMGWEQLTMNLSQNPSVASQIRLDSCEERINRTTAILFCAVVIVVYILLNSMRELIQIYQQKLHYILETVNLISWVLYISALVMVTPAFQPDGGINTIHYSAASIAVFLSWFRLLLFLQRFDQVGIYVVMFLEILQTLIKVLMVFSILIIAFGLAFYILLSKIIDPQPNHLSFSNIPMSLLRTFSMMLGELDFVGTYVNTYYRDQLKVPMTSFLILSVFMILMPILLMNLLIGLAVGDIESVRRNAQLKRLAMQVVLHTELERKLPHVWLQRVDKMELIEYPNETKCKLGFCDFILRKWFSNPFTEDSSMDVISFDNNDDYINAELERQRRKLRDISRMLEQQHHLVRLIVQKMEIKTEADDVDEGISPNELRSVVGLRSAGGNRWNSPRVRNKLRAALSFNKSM
# Painless = target: T2, Painless (Drosophila melanogaster, UniProt Q9W0Y6); experiment: Larval neuromuscular junction electrophysiology, Painless expressed in motor neurons; format: cell-based; settings: 500 μM, third instar larval muscles
# T2 sequence (Q9W0Y6 1-913): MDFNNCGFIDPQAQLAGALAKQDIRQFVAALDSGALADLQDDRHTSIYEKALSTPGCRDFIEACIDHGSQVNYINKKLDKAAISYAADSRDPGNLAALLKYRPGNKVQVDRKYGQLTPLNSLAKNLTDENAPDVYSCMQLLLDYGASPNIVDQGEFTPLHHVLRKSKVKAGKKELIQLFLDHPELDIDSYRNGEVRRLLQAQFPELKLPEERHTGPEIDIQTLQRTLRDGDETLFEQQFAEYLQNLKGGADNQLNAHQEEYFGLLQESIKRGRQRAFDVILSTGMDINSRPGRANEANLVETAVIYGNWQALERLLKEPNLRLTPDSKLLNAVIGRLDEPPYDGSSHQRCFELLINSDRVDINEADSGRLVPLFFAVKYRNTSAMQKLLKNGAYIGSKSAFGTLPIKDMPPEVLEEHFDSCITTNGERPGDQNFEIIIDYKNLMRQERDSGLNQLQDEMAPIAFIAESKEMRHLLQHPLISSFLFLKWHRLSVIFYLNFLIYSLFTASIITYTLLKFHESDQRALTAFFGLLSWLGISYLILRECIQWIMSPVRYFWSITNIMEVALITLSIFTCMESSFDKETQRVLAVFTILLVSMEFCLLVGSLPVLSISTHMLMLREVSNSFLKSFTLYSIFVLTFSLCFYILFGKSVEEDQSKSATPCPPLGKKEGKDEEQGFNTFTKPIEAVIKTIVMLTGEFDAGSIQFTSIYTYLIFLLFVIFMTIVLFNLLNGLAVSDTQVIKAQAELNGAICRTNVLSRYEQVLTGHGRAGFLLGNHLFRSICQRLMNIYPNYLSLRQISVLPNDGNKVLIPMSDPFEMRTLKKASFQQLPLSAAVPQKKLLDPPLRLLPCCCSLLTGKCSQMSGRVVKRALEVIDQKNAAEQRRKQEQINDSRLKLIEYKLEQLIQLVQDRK
smiles,measurement,setting,value
"O=CC=Cc1ccccc1 [CA, cinnamaldehyde]",Effect on PER in dTrpA1 loss-of-function mutants,"Drosophila flies; dTrpA1 loss-of-function mutants, ingestion permitted",no reduction
same,Acceptance on first offering,Drosophila flies; first of five tastant offerings,usually accepted
same,Effect on proboscis extension response (PER) / feeding,"Drosophila flies; wild type flies, ingestion permitted, 350 mM sucrose with 2 mM AITC, 10 mM NMM or 6 mM CA",robustly inhibited
same,Response of uninjected oocytes,uninjected oocytes,did not respond
same,Excitatory junction potentials (EJPs) driven by dTRPA1-expressing motor neurons,dTRPA1,cinnamaldehyde-responsive
same,Induction of EJPs in OK371>Painless animals,Painless,does not induce
